Assay [1] can be described thus: HepG2 cell cytotoxicity, cytotoxicity control, set 4 (AID 504910). The format is functional. To be noted: Mycobacterium tuberculosis.
A short description of assay [2]: ARNT/TACC3 interaction disruptors, potency, confirmation, biochemical, AlphaScreen, cherry-picked samples (AID 651703).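 Further: His-tagged ARNT PAS-B domain paired with GST-TACC3 E629A dimer coactivator fragment; potency of inhibitors that break up the complex and lower AlphaScreen signal.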 In kind it is functional, Homo sapiens. A general note: In Alpha technology, singlet oxygen from a donor bead excites a nearby acceptor bead.
Assay [3] in a line: Vero E6 cell cytotoxicity, dose response, cytotoxicity control for non-replicating M. tuberculosis project, secondary assay (AID 492998). The format is functional, VeroE6. As to conditions: Vero C1008.
A short description of assay [4]: inhibitors of intracellular T. cruzi replication, confirmation, NIH3T3 host cells, beta-gal luminescence (AID 2044).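 Further: intracellular parasites grown in NIH/3T3 mouse fibroblasts as host cells; luminescent beta-galactosidase reporter signal from transgenic T. cruzi replicating inside host cells; inhibitors lower the luminescence signal.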 The format is functional, cell-based.
Assay [5] is described as follows: THP-1 cell cytotoxicity, dose response, cytotoxicity control for non-replicating M. tuberculosis project (AID 489025). In kind it is functional.
Another assay in a line: cells. The format is functional.
The target of assay [6] is T1, Microphthalmia-associated transcription factor (Homo sapiens, UniProt O75030).
T1 sequence (O75030 whole entry): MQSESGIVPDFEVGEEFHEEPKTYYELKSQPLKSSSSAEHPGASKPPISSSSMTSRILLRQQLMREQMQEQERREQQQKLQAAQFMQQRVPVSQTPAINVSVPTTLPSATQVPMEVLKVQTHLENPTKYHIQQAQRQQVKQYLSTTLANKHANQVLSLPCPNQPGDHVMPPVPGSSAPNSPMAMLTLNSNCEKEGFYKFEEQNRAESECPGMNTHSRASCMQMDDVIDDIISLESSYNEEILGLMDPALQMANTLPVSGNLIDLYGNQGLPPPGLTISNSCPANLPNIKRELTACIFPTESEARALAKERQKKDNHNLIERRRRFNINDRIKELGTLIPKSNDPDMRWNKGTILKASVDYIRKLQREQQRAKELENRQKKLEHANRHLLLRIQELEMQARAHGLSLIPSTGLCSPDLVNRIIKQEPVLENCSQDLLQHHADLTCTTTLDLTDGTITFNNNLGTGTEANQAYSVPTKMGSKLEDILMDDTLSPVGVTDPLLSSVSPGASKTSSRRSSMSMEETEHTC
As to the kind of experiment: TRPM1 promoter luciferase signal decrease, dose response, MITF inhibitor project, cell-based, SK-MEL-5, cherry-picked, set 3 (AID 493073).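 Further: SK-MEL-5 melanoma cells with luciferase driven by the MITF target TRPM1 promoter.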 The format is functional.

The nature of assay [7]: cytotoxicity toward NIH3T3 fibroblasts, dose response, counter-screen, cell-based, ATP luminescence, mouse fibroblasts (AID 2010).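 Further: cells exposed to compound for about 90 hours before reading.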 In kind it is functional. (In general: The purpose of a counterscreen is to sort out artefacts and off-target activity.)
The target in assay [8] is Mitochondrial peptide methionine sulfoxide reductase (Bos taurus, UniProt P54149). As to the kind of experiment: Absorbance-based biochemical high throughput dose response assay for activators of Methionine sulfoxide reductase A (MsrA). In kind it is functional.
For assay [9], the target named is T2, Interleukin-8 (Homo sapiens, UniProt P10145).
T2 sequence (P10145 whole entry): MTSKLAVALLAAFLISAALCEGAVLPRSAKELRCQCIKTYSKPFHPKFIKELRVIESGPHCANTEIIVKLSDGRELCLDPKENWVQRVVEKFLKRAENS
As to the kind of experiment: Dose Response confirmation of uHTS small molecule hits for cystic fibrosis induced NFkb Inhibitors in a PAF-induced IL8 counterscreen. In kind it is functional. To be noted: read-out: IC50_Mean.

The test system of another assay is HEK293. As to the kind of experiment: inhibitors of LMP1-driven NF-kB reporter, dose response, cell-based, HEK293, luciferase, cherry-pick (AID 588343). As to conditions: Homo sapiens. The format is functional.
For assay [10], the target named is T2, Interleukin-8. As to the kind of experiment: Dose Response confirmation of uHTS small molecule hits for cystic fibrosis induced NFkb Inhibitors in a TNFa-induced IL8 counterscreen. The format is functional. As to conditions: read-out: IC50_Mean.

From ChEMBL document CHEMBL1201862, “PubChem BioAssay data set” (2004) come the findings set out here.

The term CC50 denotes the concentration at which the toxic effect on the cells reaches its halfway point. As usually defined, the AC50 is the concentration at which the activity in the assay is half-maximal. A word on the EC50: it is the concentration needed to bring the measured effect to its halfway point.

Activity calls are given as the source filed them.

Sequence of Mitochondrial peptide methionine sulfoxide reductase (P54149 whole entry): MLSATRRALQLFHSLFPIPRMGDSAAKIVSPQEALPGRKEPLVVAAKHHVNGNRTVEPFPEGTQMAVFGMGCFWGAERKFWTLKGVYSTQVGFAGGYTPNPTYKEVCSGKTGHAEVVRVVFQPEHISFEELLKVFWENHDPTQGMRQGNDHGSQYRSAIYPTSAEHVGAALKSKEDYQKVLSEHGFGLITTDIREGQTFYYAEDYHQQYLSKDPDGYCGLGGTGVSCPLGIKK

With `Cc1nc(SCC(=O)NC2CCCCC2)nc(O)c1C`, the CC50 in assay [1] is > 50 µM (active).
With `CCOc1ccc2c(c1)C(N(CCN1CCOCC1)C(=O)Nc1ccccc1)CC(C)(C)O2` (configuration not stated), in assay [2], the half-maximal activity concentration (AC50) was 84 µM (active).
For `O=C(N/N=C/c1ccc([N+](=O)[O-])s1)c1cccc(Br)c1`, the CC50 in assay [3] is 6.21 µM (active); in [5], 7.59 µM (active). Further, the concentration for a half-maximal effect (EC50) in [4] is 0.754 µM (active); in [7], 5.39 µM (active); in assay [8], > 104 µM (inactive). The IC50 in the assay “cells” was 4.37 µM (active). In [6], the concentration at half-maximal activity (AC50) was 4.83 µM (active).
Turning to `Nc1ncnc(N2CCc3ccccc32)c1[N+](=O)[O-]`, the IC50 is > 79 µM (inactive) on Interleukin-8 [9] and 40.1 µM (inactive) at Interleukin-8 [10]. Besides, the AC50 with HEK293 is 4.52 µM (active).
